Experimental data published in patent US20150315202A1, “CHLORIN DERIVATIVE USEFUL IN PHOTODYNAMIC THERAPY AND DIAGNOSIS” (RMW CHO GROUP LIMITED, priority 2012, published 2015).
“Also recorded” adds a separate entry of the source.

Key:
[1] = system: invasive ductile breast cancer and lymph node metastases; assay: In vivo studies Example 1: patient, oral chlorin e4 sodium plus laser and LED light; parameters: species or system human
Procedure: A patient with invasive ductile breast cancer and lymph node metastases in the right arm pit, was treated successfully. Prior to treatment a large cancer mass in the right breast was observed and a small cancer mass in the right arm pit. The treatment consisted of three courses. For each course, five doses of 62.5-187.5 mg chlorin e4 sodium were administered orally over the course of eight days. 24-48 hours after each oral dose of chlorin e4 sodium, the patient was treated with laser and LED light having a wavelength of 660 nm and 760 nm.
Subsequently the patient was treated with two further courses. Again, for each course, five doses of 62.5-187.5 mg chlorin e4 sodium were administered orally over the course of eight days. 24-48 hours after each oral dose of chlorin e4 sodium, the patient was treated with laser and LED light having a wavelength of 660 nm and 760 nm. Additionally an interstitial light treatment using a fine needle was performed on the breast with an optical fibre laser having a wavelength of 660 nm and 760 nm.

[2] = system: stage IVB Hodgkin's lymphoma with metastases; assay: In vivo studies Example 4: patient, oral chlorin e4 sodium plus laser and LED light; parameters: species or system human
Procedure: (§1) A patient with stage IVB Hodgkin's lymphoma with metastases in the liver, lymphatic system, spleen, lung and bones, was treated successfully. The treatment consisted of three courses. For each course, five doses of 62.5-187.5 mg chlorin e4 sodium were administered orally over the course of eight days. 24-48 hours after each oral dose of chlorin e4 sodium, the patient was treated with laser and LED light having a wavelength of 660 nm and 760 nm.
(§2) Subsequently the patient was treated with a further two courses. Again, for each course, five doses of 62.5-187.5 mg chlorin e4 sodium were administered orally over the course of eight days. 24-48 hours after each oral dose of chlorin e4 sodium, the patient was treated with laser and LED light having a wavelength of 660 nm and 760 nm.

[3] = system: naso pharyngeal carcinoma with extension to a lymph node in the left neck; assay: In vivo studies Example 2: patient, oral chlorin e4 sodium plus laser and LED light; parameters: species or system human
Procedure: A patient with naso pharyngeal carcinoma with extension to a lymph node in the left neck, was treated successfully. The treatment consisted of three courses. For each course, five doses of 62.5-187.5 mg chlorin e4 sodium were administered orally over the course of eight days. 24-48 hours after each oral dose of chlorin e4 sodium, the patient was treated with laser and LED light having a wavelength of 660 nm and 760 nm.
as §2, with “further course.” for “further two courses.”, “for the” for “for each”

[4] = system: lung cancer with metastases in the lymph nodes and sacrum bone; assay: In vivo studies Example 11: patient, oral chlorin e4 sodium plus laser and LED light; parameters: species or system human
Procedure: A patient with lung cancer with metastases in the lymph nodes and sacrum bone, was treated successfully. […] The treatment consisted of five courses. For each course, five doses of 62.5-187.5 mg chlorin e4 sodium were administered orally over the course of eight days. 24-48 hours after each oral dose of chlorin e4 sodium, the patient was treated with laser and LED light having a wavelength of 660 nm and 760 nm. Additionally, for two of the treatment courses, an interstitial light treatment using a fine needle was performed on the sacrum bone with an optical fibre laser having a wavelength of 660 nm and 760 nm. Additionally, mesothelium bone growth therapy was administered for the last two treatment courses.

[5] = Fluorescence spectra and fluorescence quantum yield (reference TPPS); format: physicochemical
Procedure: Absorption spectra were recorded using computerized spectrophotometers Hitachi 3400 (Japan) and SF-2000 (Russia). Fluorescence spectra were measured with a computerized spectrofluorimeter Perkin-Elmer MPF-44B. 10 mm wide quartz cuvettes were used for absorption and fluorescence measurements. Fluorescence was detected at a right angle to the excitation beam. The spectral bandwidth of the monochromator was 3 nm. […] The fluorescence quantum yields (ΦF) were determined using as a reference, solutions of TPPS (m-tetrakis(p-sulfonatophenyl)porphine) in ethanol. According to the literature, the most likely fluorescence quantum yield of TPPS in air-saturated water and ethanol is equal to 0.08 (K. Kalyanasundaram and M. Neumann-Spallart, Photophysical and redox properties of water soluble porphyrins in aqueous media, J. Phys. Chem., 1982, 86, 5163-5169; and A. T. Gradyushko, A. N. Sevchenko, K. N. Solovyov and M. P. Tsvirko, Energetics of photophysical processes in chlorophyll-like molecules, Photochem. Photobiol., 1970, 11, 387-400). The fluorescence of the samples was excited by the monochromatic light corresponding to the maximum of the Soret bands: 415 nm for TPPS in ethanol and 413 nm for TPPS in water, and 403 nm for chlorin e4 sodium in water and ethanol. The monochromator bandwidth was 3 nm. The fluorescence quantum yields (ΦF) were calculated using the following equation: […]
where (ΦTPP is the quantum yield of TPPS fluorescence, Sc is the square under the fluorescence spectrum of the chlorin e4 sodium sample, STPP is the square under the fluorescence spectrum of TPPS, and Dc and DTPP are absorbance (optical density) of the chlorin e4 sodium and TPPS respectively at the excitation wavelengths. The obtained results were collated using relative units of intensity of the excited light at the excitation wavelengths. The intensities of the monochromatic light were measured using a calibrated silicon detector from Optical Power Meter System ThorLabs (Karlsfeld, Germany).

[6] = system: advanced metastatic kidney disease with metastases in the gall bladder, liver and lung; assay: In vivo studies Example 3: patient, oral chlorin e4 sodium plus laser and LED light; parameters: species or system human
Procedure: as §1, with “advanced metastatic kidney disease” for “stage IVB Hodgkin's lymphoma”, “gall bladder, liver” for “liver, lymphatic system, spleen, lung”, “lung,” for “bones,”
Subsequently the patient was treated with a further two courses. Again, for each course, five doses of 62.5-187.5 mg chlorin e4 sodium were administered orally over the course of eight days. 24-48 hours after each oral dose of chlorin e4 sodium, the patient was treated with laser and LED light having a wavelength of 660 nm and 760 nm. Additionally an interstitial light treatment using a fine needle was performed on the liver and lung with an optical fibre laser having a wavelength of 660 nm and 760 nm.

## C=Cc1c(C)c2cc3nc(c(C)c4[nH]c(cc5nc(cc1[nH]2)C(C)=C5CC)c(C)c4C(=O)O)[C@@H](CCC(=O)O)[C@@H]3C [chlorin e4 sodium]
[1]; after the fifth and final treatment course
  Response in the breast and lymph nodes (PET/CT): complete response
[1]; after the fourth treatment course
  Reduction in size of large cancer mass in the breast (doppler ultrasound): about 25%
[1]; after three courses
  Size of large cancer mass in the breast (doppler ultrasound): had not reduced in size
  Vascularity of large cancer mass in the breast (doppler ultrasound): almost no vascularity
  Vascularity of smaller lymph node cancer mass (doppler ultrasound): almost no vascularity
[1]; after three courses, reduced from 1.9 cm
  Size of smaller lymph node cancer mass: 1 cm
[1]; inflammatory response after each course, burning sensation towards the end of the second course
  Reactions at the breast tumour site: inflammatory response; also recorded: burning sensation
[1]; two years and three months after starting, five months after completion of treatment
  Patient status: alive and well
[2]; after a further two courses
  Response (PET/CT): good treatment response
[2]; after three courses
  Tumours in areas treated with light (CT): some tumours disappeared altogether and some tumours reduced in size
[2]; life expectancy before treatment only two weeks
  Survival time: two years and two months
[3]; after the final (fourth) treatment course
  Response (ultrasound images and biopsies): complete response
[3]; immediately following three courses, confirmed ten months after treatment
  Biopsy of the treated lymph node of the neck: no cancer cells were detected
[3]; one month before and ten months after treatment
  Comparison of CT scans: no spread of tumours and that the size of the tumours was reduced
[3]; two years and six months after starting, five months after completion of treatment
  Patient status: alive and well
[4]; 10 months after starting, four months after completion of treatment
  Patient status: alive and well
[4]; five courses, interstitial light on sacrum bone, mesothelium bone growth therapy for last two courses
  Response (PET/CT): complete response
[5]; SDS containing water
  Fluorescence quantum yield (ranking among solvents): slightly less
[5]; ethanol
  Fluorescence quantum yield (ranking among solvents): highest
[5]; water without SDS
  Fluorescence quantum yield (ranking among solvents): smallest; also recorded: still high
[6]; after a further two courses with interstitial light on liver and lung
  Response (PET/CT): good treatment response
[6]; after three courses
  Metastasis: No further metastasis was observed
[6]; before and two, three, five and 15 months after three courses
  Tumours throughout the body (PET/CT): some tumours disappeared altogether and the remaining tumours reduced in size
[6]; five courses
  Side effects: no side effects
[6]; life expectancy prior to treatment only six months
  Survival time: two years and four months
